Assay results taken from ChEMBL document CHEMBL1124587 (J Med Chem, 1989).

Experiments:
[1] = Partition coefficient (logD); conditions: octanol/water
[2] = target: Glycine receptor (Rattus norvegicus); experiment: Inhibition of binding of [3H]strychnine to glycine receptor
[3] = Inhibition of binding of [3H]strychnine to glycine receptor in rat

| logP [1] | SMILES | also measured |
| --- | --- | --- |
| 0.85 | COc1ccc(-c2[nH]nc(O)c2N)cc1 | – |
| 0.33 | Oc1coc2[nH]cnc12 | – |

Continued, molecule first:

| SMILES | logP [1] | also measured |
| --- | --- | --- |
| Oc1coc2cc[nH]c12 | 1.07 | – |
| Nc1c(C(F)(F)F)n[nH]c1O | – | IC50 [2]: 418 µM |
| NCC(=O)O [GLYCINE] | – | IC50 [3]: 6 µM |
| CNCC(=O)O [SARCOSINE] | – | IC50 [3]: 350 µM |
| Nc1ccccc1O [QUESTIOMYCIN B] | 0.65 | – |
